Target: T1, recombinant human prolyl oligopeptidase (POP) (Homo sapiens, UniProt P48147)
T1 construct: made in house; host or cells: E. coli
T1 sequence (P48147 1-710): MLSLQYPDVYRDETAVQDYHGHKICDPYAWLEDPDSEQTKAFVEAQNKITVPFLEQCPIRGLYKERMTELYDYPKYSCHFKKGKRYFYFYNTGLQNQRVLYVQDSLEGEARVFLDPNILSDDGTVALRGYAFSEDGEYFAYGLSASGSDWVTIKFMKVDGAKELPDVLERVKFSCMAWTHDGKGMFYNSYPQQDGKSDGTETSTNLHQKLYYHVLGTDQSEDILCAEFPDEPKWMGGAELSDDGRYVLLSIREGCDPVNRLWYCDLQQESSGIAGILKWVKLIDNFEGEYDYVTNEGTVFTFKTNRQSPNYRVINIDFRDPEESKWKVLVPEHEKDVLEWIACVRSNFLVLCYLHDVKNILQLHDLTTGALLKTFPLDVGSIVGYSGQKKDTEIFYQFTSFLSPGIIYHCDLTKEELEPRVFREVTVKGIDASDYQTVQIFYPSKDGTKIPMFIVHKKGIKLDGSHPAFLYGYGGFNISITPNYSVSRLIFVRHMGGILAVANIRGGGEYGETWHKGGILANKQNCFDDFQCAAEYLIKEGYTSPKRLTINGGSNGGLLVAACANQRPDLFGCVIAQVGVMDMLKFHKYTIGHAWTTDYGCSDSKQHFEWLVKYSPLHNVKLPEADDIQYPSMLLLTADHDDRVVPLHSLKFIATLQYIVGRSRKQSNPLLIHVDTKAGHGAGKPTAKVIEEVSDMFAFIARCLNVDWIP
Test: Cross reacting enzymes: prolyl oligopeptidase
Format: biochemical
Settings: concentration range 1*10^−4 M-5*10^−8 M
Experimental: Substrates are peptides with a molecular weight up to 3000 Da. The enzyme used was a recombinant human prolyl oligopeptidase. Recombinant expression was performed in E. coli under standard conditions as described elsewhere in the state of the art.
100 μl glutaminyl pyrrolidine or glutaminyl thiazolidine in an concentration range of 1*10^−4 M-5*10^−8 M were admixed with 100 μl μl buffer solution (40 mM HEPES, pH7.6, 0.015% Brij, 1 mM DTT) and 20 μl POP solution. The assay mixture was pre-incubated at 30° C. for 15 min. After pre-incubation, 50 μl glycylprolylprolyl-4-nitroaniline solution (0.29 mM) was added and measurement of yellow color development due to 4-nitroaniline release was performed at 30° C. and λ=405 nm for 10 min using a plate reader (sunrise, Tecan, Crailsheim, Germany). The IC50-values were calculated using Graphit 4.0.15 (Erithacus Software, Ltd., UK).

inhibition of POP activity: No inhibition
Compound: NC(=O)CCC(N)C(=O)N1CCCC1 (stereo not shown) [Gln-Pyrr, glutaminyl pyrrolidine]

Source: patent US7368576B2, “Dipeptidyl peptidase IV inhibitors and their uses as anti-cancer agents” (Probiodrug AG, priority 2001, dated 2008)
